Experimental data published in article PMC9786170, “The Pharmacological Potential of Novel Melittin Variants from the Honeybee and Solitary Bees against Inflammation and Cancer” (Toxins, 2022).
Entries after “also recorded” stand apart in the source; their conditions may differ.

Key:
RAW264.7 cells [1] = assay: NO inhibition assay (LPS-stimulated, Griess); format: cell-based, murine; details: RAW264.7, peptide 30 min, then 100 ng/mL LPS 24 h, n = 3
Experimental: Figure 4 Influence of melittin derivates on inflammation-associated cell functions. (A,B) For the NO induction assay (A), RAW264.7 cells were treated with melittin peptides in the indicated concentrations for 24 h. For the NO inhibition assay (B), RAW264.7 cells were pretreated with melittin peptides in the indicated concentrations for 30 min and then stimulated with 100 ng/mL LPS for 24 h. NO was detected in the supernatant using the Griess method. […] THP-1 cell adhesion under static conditions. HUVECs were grown to confluence, preincubated with bee venoms for 30 min, and activated with TNF (10 ng/mL) for 24 h. For the leukocyte adhesion assay, untreated THP-1 cells were stained with CellTracker Green and were allowed to adhere to the treated HUVECs for 5 min. The adhesion of leukocytes onto Ecs was quantified by fluorescence measurements for all cell adhesion experiments. Data are expressed as means ± SEM, (A,B) n = 3, (C) n = 2. * p ≤ 0.05 vs. TNF (positive) control.
2 × 10^4 RAW264.7 macrophages/well were plated in a 96-well plate and cultured for 24 h at 37 °C. To investigate if the melittin peptides induce nitrogen oxide (NO) synthesis, the melittin peptides, control (DMSO), and positive control (100 ng/mL lipopolysaccharide (LPS)) were added. To evaluate the effect of melittin peptides on inhibiting NO synthesis, the cells were pre-incubated with peptides or control (DMSO) for 30 min before 100 ng/mL LPS were added. After 24 h supernatants were collected and stored at −80 °C.
NO was determined with the Griess method. Briefly, for the standard curve, different concentrations of sodium nitrite (0–50 µM) were prepared in the medium. A total of 80 µL cell supernatant or standard sample were added to a 96-well microplate and subsequently, 20 µL sulfanilamide solution (120 mg sulfanilamide in 30 mL 1 N hydrochloric acid) and 20 µL naphthylenediamine solution (180 mg N-(1-naphthyl)ethylenediamine dihydrochloride in 30 mL water) were added. After 15 min of incubation, the absorbance (540 nm) was measured with the EnSpire Plate Reader (PerkinElmer, Waltham, MA, USA). For the induction assay, the NO levels of the melittin peptides-treated samples were related to the DMSO-treated sample. For the inhibition assay, the NO levels of the melittin peptides-treated cells were correlated with the LPS-treated samples.

HEK293T cells [2] = assay: Ca2+ induction assay (Fluo-8); format: cell-based, human; details: Fluo-8, 0.25, 2.5, 25 µg/mL, partly already at 2.5 µg/mL, n = 4
Experimental: (§1) Figure 2 Melittin derivates influence cellular Ca^2+ and IP1 levels. (A) For the Ca^2+ induction assay, Fluo-8 pretreated HEK293-T cells were incubated with melittin derivates in the indicated concentrations and the fluorescence was detected. (B) For the Ca^2+ inhibition assay, Fluo-8 pretreated HEK293-T cells were incubated with peptides in the indicated concentrations for 30 min, stimulated with 5 µM ionomycin, and the fluorescence was detected. (C) IP3 has a short lifetime and is rapidly degraded to IP1; therefore, IP1 was determined. For the IP1/IP3 induction assay (left panel), HEK293T cells were incubated with melittin peptides in the indicated concentration for 2 h, a detection reagent was added, and the fluorescence resonance energy transfer signal was detected. For the IP1/IP3 inhibition assay (right panel), HEK293T cells were incubated with melittin peptides in the indicated concentration for 30 min and stimulated with 20 µM ionomycin for 1.5 h. After the addition of the detection reagent, the fluorescence resonance energy transfer signal was detected. Data are expressed as mean ± SEM. (A, B, C (left)) n = 4, (C (right)) n = 3. * p ≤ 0.05 versus control.
(§2) For analysis, 5 × 10^4 HEK293 cells or 2 × 10^4 MDA-MB-231 cells were seeded in a 96-well poly-D-lysine plate, incubated at 37 °C for 24 h, and treated with 4 µM Fluo-8-AM in HBSS for 1 h at 37 °C. After 1 h, the Fluo-8/HBSS was replaced by 100 µL HBSS. Five images per second were taken using an ImageXpress Micro Confocal High Content Imaging System (Molecular Device, San Jose, CA, USA). Melittin peptides (0.25, 2.5, and 25 µg/mL), DMSO (negative control), or 5 µM ionomycin (Sigma Aldrich; Taufkirchen, Germany) (positive control) were added to the cells. For the next 20 s, an image was obtained every second. For the inhibition assay, the peptide-treated samples (30 min) were treated with 5 µM ionomycin and for the next 20 s, an image was obtained every second. The data were analyzed with the MetaXpress Software Version 6 (Molecular Devices, San Jose, CA, USA). A threshold of fluorescence intensity was defined using cells before treatment, and all cells with a fluorescence signal above the threshold level were counted. For the induction assay, the number of cells above the threshold in the toxin-treated samples were related to the cells in the DMSO-treated sample. For the inhibition assay, the number of cells above the threshold in the melittin-treated samples were related to the cells in the ionomycin-treated sample.

HEK293T cells [3] = assay: Ca2+ inhibition assay (ionomycin-stimulated, Fluo-8); format: cell-based, human; details: Fluo-8, peptide 30 min, then 5 µM ionomycin, n = 4
Experimental: as §1, §2

RAW264.7 cells [4] = assay: Cell viability assay (WST-8/Orangu formazan) in RAW264.7 cells; format: cell-based, murine
Experimental: Figure 1 Toxicity characterization of cells treated with melittin peptides. (A,B) For the viability assay, RAW264.7 (A) or HEK293T (B) cells were treated with bee venom compounds in the indicated concentrations for 24 h. Cells were incubated with WST-8 and the formed formazan was detected by absorbance measurements. (C) For the proliferation assay, HMEC-1 cells were grown in low density and treated after 24 h with the indicated peptide (25 µg/mL) for 72 h. Cells were stained with crystal violet solution. The amount of DNA-bound crystal violet was detected by absorbance measurements. (D) The number of sub-diploidic cells was determined by staining with propidium iodide (PI) and quantified to assess apoptosis of HUVECs. Data are expressed as mean ± SEM. (A) n = 3, (B) n = 4, (C) n = 2–3, (D) n = 2. * p ≤ 0.05 versus control.
For assessing the cytotoxicity of all peptides, various cell types and assays were utilized. To determine the cell viability of HEK293T and RAW246.7 cells, the Orangu^TM assay (Cell Guidance Systems Ltd., Cambridge, UK) was used, as previously described. 2 × 10^5 HEK293T or 2 × 10^5 RAW246.7 were seeded in 96-well plates. Different concentrations (0, 0.25, 2.5, 25 µg/mL) of melittin peptides or vehicle (DMSO) were added. After 24 h of incubation at 37 °C and 5% CO2, 10 µL of Orangu^TM cell counting solution was added and incubated for 60 min. After incubation, absorbance was measured at a wavelength of 450 nm with a reference at 650 nm at an EnSpire 2300 Multimode Plate Reader (Perkin Elmer, Lübeck, Germany). To calculate cell viability, the absorbance of vehicle-treated cells was set to 100%, and the melittin derivates-treated samples were correlated to them.

Substance	inhibition of LPS-induced NO synthesis (RAW264.7 cells [1])	induction of Ca2+ release (HEK293T cells [2])	inhibition of ionomycin-induced Ca2+ release (HEK293T cells [3])	reduction of cell viability (RAW264.7 cells [4]; RAW264.7, 25 µg/mL, 24 h, WST-8 formazan absorbance, vehicle = 100%, n = 3)	cytotoxicity in RAW264.7 (RAW264.7 cells [4]; RAW264.7 macrophage, Discussion)
codesane	prevented LPS-induced NO synthesis in a concentration-dependent manner	without inducing Ca^2+ release	inhibited the ionomycin-induced Ca^2+ release; also recorded: inhibit Ca^2+ levels	–	–
xylopin [Xac3]	prevented LPS-induced NO synthesis in a concentration-dependent manner; also recorded: inhibit NO synthesis	induced a significant release of Ca^2+	–	more than 90%	induced significant cytotoxicity
halictin	–	–	inhibit Ca^2+ levels	–	–
halictin [Hal2]	–	without inducing Ca^2+ release	inhibited the ionomycin-induced Ca^2+ release	–	–
xylopin [Xac1]	–	–	inhibit Ca^2+ levels	–	–
melectin	prevented LPS-induced NO synthesis in a concentration-dependent manner	induced a significant release of Ca^2+; also recorded: induce Ca^2+ release	–	–	–
osmin	prevented LPS-induced NO synthesis in a concentration-dependent manner	induced a significant release of Ca^2+; also recorded: induce Ca^2+ release	–	–	–
